Measurements taken from ChEMBL document CHEMBL3856225, “Design, synthesis and biological evaluation of 5-benzylidene-2-iminothiazolidin-4-ones as selective GSK-3β inhibitors” (Eur J Med Chem, 2016).

Tests used:
[1] = target: T1, Glycogen synthase kinase-3 beta (Homo sapiens, UniProt P49841); assay: Inhibition of His-tagged full length human recombinant GSK-3beta expressed in Baculovirus at 0.5 uM using Ser/Thr9 peptide as substrate by Z' LYTE assay relative to control
Target sequence in this assay (P49841 whole entry, looked up): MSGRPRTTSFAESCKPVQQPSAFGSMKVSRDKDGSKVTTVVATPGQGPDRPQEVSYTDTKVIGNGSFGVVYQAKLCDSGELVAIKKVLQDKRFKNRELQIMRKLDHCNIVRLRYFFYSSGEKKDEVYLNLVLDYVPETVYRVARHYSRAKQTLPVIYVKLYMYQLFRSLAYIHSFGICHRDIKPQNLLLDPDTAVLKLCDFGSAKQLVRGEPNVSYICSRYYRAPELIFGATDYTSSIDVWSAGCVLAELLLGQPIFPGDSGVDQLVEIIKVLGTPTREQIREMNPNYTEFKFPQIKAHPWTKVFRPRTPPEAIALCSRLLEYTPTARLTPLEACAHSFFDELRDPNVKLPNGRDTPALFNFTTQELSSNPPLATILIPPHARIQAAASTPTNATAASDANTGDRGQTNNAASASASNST

[2] = target: T1, Glycogen synthase kinase-3 beta; assay: Inhibition of His-tagged full length human recombinant GSK-3beta expressed in Baculovirus using Ser/Thr9 peptide as substrate by Z' LYTE assay
Target sequence in this assay (P49841 whole entry): as the sequence (P49841 whole entry, looked up) above

[3] = target: Cyclin-dependent kinase 2 (Homo sapiens) (UniProt P24941); assay: Inhibition of GST-tagged human recombinant CDK2 assessed as residual activity at 2 uM using Ser/Thr12 peptide as substrate by Z' LYTE assay relative to control

| inhibition [1] [%] | IC50 [2] [nM] | Activity [3] [%] | SMILES |
| --- | --- | --- | --- |
| > 50 | 27.7 | 69.6 | O=C1N/C(=N/c2ccccc2)S/C1=C\c1ccc(O)cc1 |
| > 50 | 24 | 68.4 | O=C1N/C(=N/Cc2ccccc2)S/C1=C\c1ccc(Cl)c([N+](=O)[O-])c1 |
| > 50 |  |  | COc1cc(/C=C2\SC(=N)NC2=O)ccc1O |
| > 50 | 51.7 | 39.1 | CCOc1cc(/C=C2\S/C(=N\Cc3ccccc3)NC2=O)ccc1O |
| > 50 | 84.8 |  | N=C1NC(=O)/C(=C/c2ccc(O)c(C(=O)O)c2)S1 |
| > 50 | 44.3 | 53.8 | COc1ccc(/C=C2\S/C(=N\Cc3ccccc3)NC2=O)cc1OC |
| > 50 | 40 | 68.9 | O=C1N/C(=N/c2ccccc2)S/C1=C\c1ccc(F)cc1 |
| > 50 | 27.1 | 63.2 | O=C1N=C(NCc2ccccc2)S/C1=C\c1ccc(O)cc1 |
| > 50 | 80.5 |  | COc1ccc(/C=C2\SC(=N)NC2=O)cc1OC |
| > 50 | 2.1 | 73 | COc1ccc(/C=C2\S/C(=N\Cc3ccccc3)NC2=O)cc1[N+](=O)[O-] |
